Laboratory results from publication PMC7156724, “Potent BRD4 inhibitor suppresses cancer cell-macrophage interaction” (Nature Communications, 2020).
Where “and” joins values, the source holds several entries; their conditions need not be identical. Equal entries are not always repeated.

What was measured:
A2780 cells = assay: Clonogenic (colony formation) assay, A2780; format: cell-based, human; conditions: A2780, 250 nM, 5 days
Protocol: Fig. 2 NHWD-870 inhibited BRD4 phosphorylation and c-MYC expression, and suppressed cell growth. a Representative western blot analysis of p-BRD4 (s484/488), BRD4, c-MYC, and GAPDH after treatment of MDA-MB231, SUM159, A2780 ES-2, and H526 cells with JQ-1 or NHWD-870 at the indicated concentrations for 24 h. GAPDH served as the loading control. Selected from three independent experiments. b MTT assays of H526, A2780, ES-2, and MDA-MB231 cells treated with JQ-1 or NHWD-870 at the indicated concentrations for 5 days. Data are presented as mean ± SEM from three independent experiments. c, d Clonogenic assays of H526, A2780, ES-2 and MDA-MB231 cells treated with 250 nM JQ-1 or NHWD-870 for 5 days. Shown are representative images (c) and quantification of colonies (d). […] Shown are representative images (e) and quantification of relative colony sizes (f). Scale bar, 50 μm. Data are presented as mean ± SEM from five independent experiments. p values were calculated using two-tailed, unpaired t tests in this figure. **p < 0.01; ***p < 0.001. Source data are provided as a Source Data file. […]
5. Colony formation assay. Cells were seeded in 6-well plates at 3,000 cells/well […]
every week. […] Colony numbers were calculated with imageJ version

BRD4 (BD1+BD2) = molecular target: T1, BRD4 (BD1+BD2) (Homo sapiens, UniProt O60885); assay: BRD4 (BD1+BD2) TR-FRET binding assay; conditions: for Biochemical activity against BRD4 (BD1 + BD2): Fig.1d, replicates
T1 construct: purchased BPS 32612
From the text: 2. BRD4 binding assay. The inhibitory effects of NHWD-530, NHWD-540, NHWD- […]
(BPS, Cat # 32612) per manufacturer’s instructions. […]

[1] = system: PI3K/AKT1 and ERK phosphorylation; assay: Western blot of p-PI3K, p-AKT1 and p-ERK in TAMs; format: cell-based, mouse
Protocol: Supplementary Figure 13. NHWD-870 inhibited CSF1/CSF1R signaling pathw ay to reduce TAM […]
TA M s ( 2 ×10^5 cells) (treated with or without 10 ng/ml CSF1 and 100 nM NHWD-870 for 48 h) were seeded into the 6-well bottom chamber, in the presence or absence of A2780 cells (pre-treated with or without 100 nM NHWD-870 for 48 h) seeded into the top chamber (transwell size: 0.4μm). Shown are schematics of the experiment and representative western blot analysis of the indicated proteins (a), and quantification of the relative levels of p-PI3K, p-AKT1 and p-ERK over their respective total protein (b). Data are presented as mean ± SEM from 3 independent experiments. p values were calculated using two-tailed, unpaired t tests. n.s, no significant; **, p<0.01; ***, p<0.001. Source data are provided as a Source Data file. […]
4. Protein extraction and w estern blot anal ysis. Freshly dissected unfixed tissue was homogenized in lysis buffer. The lysates were centrifuged at 13,000g for 10 minutes at 4°C. Supernatants were collected and determined with a Bradford Protein Assay kit (Bio-Rad, Hercules, CA). The cell lysates were subjected to SDS-PAGE followed by immunoblotting (Immobilon P; Millipore, Milford, MA) with specific antibodies followed by detection using an enhanced chemilumine scence kit (Amersham Life Science, Arlington Heights, IL). […]

[2] = system: monocytes in peripheral blood; assay: Complete blood cell counting of monocytes in B16F10 tumor bearing mice; format: in vivo, mouse; conditions: B16F10 melanoma tumor bearing mice, 11 days
Protocol: Reviewer Fig 3. […] B16F10 melanoma […]
tumor bearing mice (n=5) treated with the indicated compounds for 11 days. Monocytes in blood of DMSO and NHWD-870-treated mice were analyzed by complete blood cell counting (CBC). […]
tumor cells blocks mCSF expression and blocks proliferation of macrophages ex vivo. It is not possible from these studies to conclude if NHWD-870 mediated inhibition of mCSF expression is responsible for […]
In part, this is because the culture conditions for this unusual assay have not been described in the methods or text sections. What are the components of the culture medium? Does it include serum, mCSF and other growth factors? A more direct method of testing the effect of tumor cell expressed mCSF on TAMs ex vivo is to incubate TAMs in defined tumor cell conditioned media from untreated and treated tumor cells (the media placed on the macrophages should not include the drug, however). However, there is one other key weakness to these studies that […]
It is thus not clear if absence of mCSF or products from dying cells suppress macrophage growth as colonies ex vivo. […]
experiments, which has been added and addressed in response to comment #4. We agree that the experiments can be done with conditioned media. […]
Shown are schematics of the experiments (m) and quantification of TAMs (n, o). […]

[3] = A2780&NHWD-870, individual replicates
[4] = CSF1&NHWD-870, individual replicates

Question: `Cc1nnn(C)c1-c1cnc2c3c4cnn(C)c4ccc3n([C@H](c3ccccc3)C3CCOCC3)c2c1` [NHWD-870] was tested. Which “Clone Number (clonogenic assay)” value (A2780 cells) did it give?
Answer: 378 and 355 and 313 and 209 and 273

Question: What about the “Biochemical activity against BRD4 (BD1 + BD2)” value (“Biochemical activity” for short) (BRD4 (BD1+BD2); concentration(nM) 0.0021442) of the same compound?
Answer: 0.8628 and 1.4579

Question: What about the “Biochemical activity” value (BRD4 (BD1+BD2); concentration(nM) 0.061236) of the same compound?
Answer: 16.5754 and 12.5588

Question: And the “Biochemical activity” value (BRD4 (BD1+BD2); concentration(nM) 0.103)?
Answer: 20.2946 and 25.6828

Question: What about the “Biochemical activity” value (BRD4 (BD1+BD2); concentration(nM) 0.59176) of the same compound?
Answer: 60.3038 and 63.4692

Question: And the “Biochemical activity” value (BRD4 (BD1+BD2); concentration(nM) 1.19382)?
Answer: 79.3053 and 83.6424

Question: And the “Biochemical activity” value (BRD4 (BD1+BD2); concentration(nM) 1.79588)?
Answer: 95.9066 and 95.1156

Question: And the “Biochemical activity” value (BRD4 (BD1+BD2); concentration(nM) 2.39794)?
Answer: 100.74 and 99.5542

Question: And the “Biochemical activity” value (BRD4 (BD1+BD2); concentration(nM) 3)?
Answer: 101.339 and 101.804

Question: And the IC50 (BRD4 (BD1+BD2); average IC50, nM, read-out: IC50, biochemical activity against BRD4 (BD1 + BD2))?
Answer: 2.7 nM and 2.72 nM

Question: And the “p-AKT1 (Sup Fig.13b quantification)” value [1, 3]?
Answer: 2.1 and 1.52 and 1.57

Question: And the “p-ERK (Sup Fig.13b quantification)” value [1, 3]?
Answer: 1.19 and 1.05 and 0.87

Question: And the “p-PI3K (Sup Fig.13b quantification)” value [1, 3]?
Answer: 2.9 and 1.18 and 1.69

Question: And the “p-AKT1 (Sup Fig.13b quantification)” value [1, 4]?
Answer: 6.88 and 4.52 and 4.09

Question: What about the “p-ERK (Sup Fig.13b quantification)” value [1, 4] of the same compound?
Answer: 3.28 and 4.19 and 4.11

Question: What about the “p-PI3K (Sup Fig.13b quantification)” value [1, 4] of the same compound?
Answer: 2.92 and 3.3 and 3.78

Question: And the “CSF1-induced PI3K/AKT1 and ERK phosphorylation in TAMs” value ([1]; direct treatment of TAMs, 100 nM, 48 h)?
Answer: not affected

Question: What about the “PI3K/AKT1 and ERK activation in TAMs co-cultured with A2780 cells” value ([1]; pre-treatment of A2780 cells, 100 nM, 48 h) of the same compound?
Answer: blocked

Question: And the “effects on monocytes in peripheral blood” value [2]?
Answer: relatively mild effects
